# Assay results as given in PMC4965013, “Open Source Drug Discovery with the Malaria Box Compound Collection for Neglected Diseases and Beyond” (PLoS Pathogens, 2016).
# Where two headings read alike, the source gives them in different places.
# Tests used:
# [1] = tested on: P. falciparum 3D7 trophozoites; test: Metabolomic fingerprint profiling LC-MS; type: cell-based, Plasmodium falciparum; set-up: UDP-D-glucose / ADP-D-glucose: unit not given here; settings: for Acetyllysine / N-acetyl-L-ornithine / N-carbamoyl-L-aspartate / NADPH / dAMP / dCMP / dTDP / dTMP / dTTP / dihydroorotate / orotate / DLH / DLS/SDL/SID / PD / PEE / PVNF / 3-phosphoglycerate / ADP-D-glucose / ATP / CDP / D-sedoheptulose-1/7-phosphate / FAD / GMP / NAD+ / NADP+ / Octoluse Bisphosphate / Pyroglutamic acid / UDP-D-glucose / UDP-D-glucuronate / UDP-N-acetyl-glucosamine / UDP / UMP / UTP / a-ketoglutarate / citrate/isocitrate / cytidine / dATP / dGMP/AMP / fumarate / glucose-1/6-phosphate / glycerate / guanine / guanosine / hypoxanthine / indole / inosine / nicotinate / ornithine / phosphoenolpyruvate / pyruvate / ribose-phosphate / sarcosine/alanine / sn-glycerol-3-phosphate / succinate/methylmalonic acid / uridine / xanthosine: S2 Table Metabolomics; for Acetyllysine: metabolite Acetyllysine; for N-acetyl-L-ornithine: metabolite N-acetyl-L-ornithine; for N-carbamoyl-L-aspartate: metabolite N-carbamoyl-L-aspartate; for NADPH: metabolite NADPH; for dAMP: metabolite dAMP; for dCMP: metabolite dCMP; for dTDP: metabolite dTDP; for dTMP: metabolite dTMP; for dTTP: metabolite dTTP; for dihydroorotate: metabolite dihydroorotate; for orotate: metabolite orotate; for DLH: peptide DLH; for DLS/SDL/SID: peptide DLS/SDL/SID; for PD: peptide PD; for PEE: peptide PEE; for PVNF: peptide PVNF; for 3-phosphoglycerate: metabolite 3-phosphoglycerate; for ADP-D-glucose: metabolite ADP-D-glucose; for ATP: metabolite ATP; for CDP: metabolite CDP; for CDP / D-sedoheptulose-1/7-phosphate / GMP / Octoluse Bisphosphate / UDP / UMP / UTP / citrate/isocitrate / dGMP/AMP / fumarate / glucose-1/6-phosphate / glycerate / guanine / guanosine / inosine / pyruvate / sarcosine/alanine / succinate/methylmalonic acid / uridine / xanthosine: change in metabolite level after compound treatment; for D-sedoheptulose-1/7-phosphate: metabolite D-sedoheptulose-1/7-phosphate; for FAD: metabolite FAD; for GMP: metabolite GMP; for NAD+: metabolite NAD+; for NADP+: metabolite NADP+; for Octoluse Bisphosphate: metabolite Octoluse Bisphosphate; for Pyroglutamic acid: metabolite Pyroglutamic acid; for UDP-D-glucose: metabolite UDP-D-glucose; for UDP-D-glucuronate: metabolite UDP-D-glucuronate; for UDP-N-acetyl-glucosamine: metabolite UDP-N-acetyl-glucosamine; for UDP: metabolite UDP; for UMP: metabolite UMP; for UTP: metabolite UTP; for a-ketoglutarate: metabolite a-ketoglutarate; for citrate/isocitrate: metabolite citrate/isocitrate; for cytidine: metabolite cytidine; for dATP: metabolite dATP; for dGMP/AMP: metabolite dGMP/AMP; for fumarate: metabolite fumarate; for glucose-1/6-phosphate: metabolite glucose-1/6-phosphate; for glycerate: metabolite glycerate; for guanine: metabolite guanine; for guanosine: metabolite guanosine; for hypoxanthine: metabolite hypoxanthine; for indole: metabolite indole; for inosine: metabolite inosine; for 2_3-Diphosphoglyceric acid / 4-phosphopantothenate / 6-phospho-D-gluconate / FMN / IMP / Pyrophosphate / Sedoheptoluse bisphosphate / cyclic-AMP / glutathione disulfide / lactate / myo-inositol: metabolite level change after treatment; for nicotinate: metabolite nicotinate; for ornithine: metabolite ornithine; for phosphoenolpyruvate: metabolite phosphoenolpyruvate; for pyruvate: metabolite pyruvate; for ribose-phosphate: metabolite ribose-phosphate; for sarcosine/alanine: metabolite sarcosine/alanine; for sn-glycerol-3-phosphate: metabolite sn-glycerol-3-phosphate; for succinate/methylmalonic acid: metabolite succinate/methylmalonic acid; for uridine: metabolite uridine; for xanthosine: metabolite xanthosine
# P. falciparum = test: EC50 listed in S2 Table Metabolomics (used to set the concentration tested); type: cell-based; settings: Plasmodium falciparum; EC50 used for Factor_XEC50 in metabolomics; read-out: EC50_nM
# P. falciparum 3D7 = test: [3H]-hypoxanthine growth inhibition, modified HCO3- or O2; type: cell-based; settings: for IC50: Plasmodium falciparum
# [2] = 3D7, read-out: P. falciparum 3D7 IC50 1% O2, 1% O2 hypoxia
# [3] = 3D7, read-out: P. falciparum 3D7 IC50 5% O2
smiles,measurement,setting,value
Oc1ccccc1CNCC12CC3CC(CC(C3)C1)C2 [MMV020788],Acetyllysine,[1],-2.885
same,N-acetyl-L-ornithine,[1],-2.954
same,N-carbamoyl-L-aspartate,[1],-1.526
same,NADPH,[1],0.03625
same,dAMP,[1],0.309
same,dCMP,[1],-0.3685
same,dTDP,[1],-0.06212
same,dTMP,[1],-0.1581
same,dTTP,[1],-0.254
same,dihydroorotate,[1],-1.002
same,orotate,[1],-1.435
same,DLH,[1],-2.982
same,DLS/SDL/SID,[1],-2.352
same,PD,[1],-3.15
same,PEE,[1],-2.856
same,PVNF,[1],-2.845
same,3-phosphoglycerate,[1],0.739
same,ADP-D-glucose,[1],-0.1615
same,ATP,[1],-0.008574
same,CDP,[1],0.1968
same,D-sedoheptulose-1/7-phosphate,[1],-0.6783
same,FAD,[1],-0.02526
same,GMP,[1],-0.06975
same,NAD+,[1],-0.1588
same,NADP+,[1],-0.008021
same,Octoluse Bisphosphate,[1],-0.4633
same,Pyroglutamic acid,[1],-0.07383
same,UDP-D-glucose,[1],0.01367
same,UDP-D-glucuronate,[1],-0.09612
same,UDP-N-acetyl-glucosamine,[1],-0.01836
same,UDP,[1],-0.3321
same,UMP,[1],-0.241
same,UTP,[1],-0.2582
same,a-ketoglutarate,[1],-0.5092
same,citrate/isocitrate,[1],-0.2786
same,cytidine,[1],0.02539
same,dATP,[1],-0.1887
same,dGMP/AMP,[1],0.3187
same,fumarate,[1],-0.7339
same,glucose-1/6-phosphate,[1],-0.008522
same,glycerate,[1],-0.4973
same,guanine,[1],-0.3533
same,guanosine,[1],-0.149
same,hypoxanthine,[1],-0.5956
same,indole,[1],-0.4443
same,inosine,[1],-0.3499
same,2_3-Diphosphoglyceric acid,[1],0.3339
same,4-phosphopantothenate,[1],-0.308
same,6-phospho-D-gluconate,[1],0.001521
same,FMN,[1],-0.2331
same,IMP,[1],-0.5843
same,Pyrophosphate,[1],0.1188
same,Sedoheptoluse bisphosphate,[1],-0.1032
same,cyclic-AMP,[1],-0.6828
same,glutathione disulfide,[1],-0.3605
same,lactate,[1],-0.4043
same,myo-inositol,[1],-0.5298
same,nicotinate,[1],-0.1476
same,ornithine,[1],-0.2765
same,phosphoenolpyruvate,[1],0.5824
same,pyruvate,[1],0.6752
same,ribose-phosphate,[1],0.658
same,sarcosine/alanine,[1],-1.087
same,sn-glycerol-3-phosphate,[1],0.6534
same,succinate/methylmalonic acid,[1],0.06183
same,uridine,[1],-0.2427
same,xanthosine,[1],-0.4659
same,EC50,P. falciparum,22.6 nM
same,fold change (IC50normal/ IC50hypoxia),P. falciparum 3D7,2.2
same,IC50,P. falciparum 3D7; [2],63 nM
same,IC50,P. falciparum 3D7; [3],136 nM
CCOC(=O)c1cn(CC)c2cc(N(C)CCc3ccc(OC)c(OC)c3)c(F)cc2c1=O [MMV665977],Acetyllysine,[1],-0.2007
same,N-acetyl-L-ornithine,[1],0.023
same,N-carbamoyl-L-aspartate,[1],3.959
same,NADPH,[1],-0.01115
same,dAMP,[1],0.7523
same,dCMP,[1],0.5464
same,dTDP,[1],0.1785
same,dTMP,[1],0.2344
same,dTTP,[1],-0.3388
same,dihydroorotate,[1],4.609
same,orotate,[1],-0.8094
same,DLH,[1],-0.4948
same,DLS/SDL/SID,[1],-0.3029
same,PD,[1],0.1633
same,PEE,[1],-0.1468
same,PVNF,[1],-0.5192
same,3-phosphoglycerate,[1],-0.3617
same,ADP-D-glucose,[1],0.08874
same,ATP,[1],-0.1759
same,CDP,[1],0.4208
same,D-sedoheptulose-1/7-phosphate,[1],0.7585
same,FAD,[1],0.2291
same,GMP,[1],-0.3238
same,NAD+,[1],0.1079
same,NADP+,[1],0.05477
same,Octoluse Bisphosphate,[1],-0.07826
same,Pyroglutamic acid,[1],-0.2687
same,UDP-D-glucose,[1],0.1563
same,UDP-D-glucuronate,[1],0.07018
same,UDP-N-acetyl-glucosamine,[1],0.07391
same,UDP,[1],0.2133
same,UMP,[1],-0.8829
same,UTP,[1],-1.518
same,a-ketoglutarate,[1],-0.594
same,citrate/isocitrate,[1],-0.7044
same,cytidine,[1],0.327
same,dATP,[1],0.6974
same,dGMP/AMP,[1],-0.4295
same,fumarate,[1],0.007291
same,glucose-1/6-phosphate,[1],0.2816
same,glycerate,[1],-0.4808
same,guanine,[1],0.3502
same,guanosine,[1],0.225
same,hypoxanthine,[1],-0.2655
same,indole,[1],-0.1099
same,inosine,[1],0.2015
same,2_3-Diphosphoglyceric acid,[1],0.344
same,4-phosphopantothenate,[1],-0.03263
same,6-phospho-D-gluconate,[1],0.2163
same,FMN,[1],0.1874
same,IMP,[1],0.1512
same,Pyrophosphate,[1],0.2053
same,Sedoheptoluse bisphosphate,[1],0.01379
same,cyclic-AMP,[1],0.02919
same,glutathione disulfide,[1],0.2163
same,lactate,[1],-0.4098
same,myo-inositol,[1],-0.567
same,nicotinate,[1],-0.4053
same,ornithine,[1],0.1382
same,phosphoenolpyruvate,[1],-0.3385
same,pyruvate,[1],-0.6681
same,ribose-phosphate,[1],-0.2449
same,sarcosine/alanine,[1],0.1312
same,sn-glycerol-3-phosphate,[1],0.2048
same,succinate/methylmalonic acid,[1],-0.4008
same,uridine,[1],-0.5319
same,xanthosine,[1],-0.3168
same,EC50,P. falciparum,205 nM
same,fold change (IC50normal/ IC50hypoxia),P. falciparum 3D7,4.1
same,IC50,P. falciparum 3D7; [2],85 nM
same,IC50,P. falciparum 3D7; [3],345 nM
COc1ccc2c(=O)cc(C(Cl)(Cl)Cl)oc2c1 [MMV665820],Acetyllysine,[1],-2.345
same,N-acetyl-L-ornithine,[1],-3.277
same,N-carbamoyl-L-aspartate,[1],-3.842
same,NADPH,[1],-0.2986
same,dAMP,[1],-0.8398
same,dCMP,[1],-0.0001746
same,dTDP,[1],-1.2684
same,dTMP,[1],-0.5586
same,dTTP,[1],-2.5615
same,dihydroorotate,[1],-2.921
same,orotate,[1],-2.382
same,DLH,[1],-2.464
same,DLS/SDL/SID,[1],-1.694
same,PD,[1],-4.28
same,PEE,[1],-1.0444
same,PVNF,[1],-2.464
same,3-phosphoglycerate,[1],-2.392
same,ADP-D-glucose,[1],-0.3227
same,ATP,[1],-1.288
same,CDP,[1],-0.9038
same,D-sedoheptulose-1/7-phosphate,[1],0.5405
same,FAD,[1],-1.407
same,GMP,[1],-1.717
same,NAD+,[1],-0.3778
same,NADP+,[1],-0.008784
same,Octoluse Bisphosphate,[1],-4.199
same,Pyroglutamic acid,[1],0.4738
same,UDP-D-glucose,[1],-0.2217
same,UDP-D-glucuronate,[1],-0.02834
same,UDP-N-acetyl-glucosamine,[1],-0.2815
same,UDP,[1],-0.477
same,UMP,[1],-2.629
same,UTP,[1],-1.869
same,a-ketoglutarate,[1],0.2276
same,citrate/isocitrate,[1],-0.6427
same,cytidine,[1],-0.5777
same,dATP,[1],-2.2274
same,dGMP/AMP,[1],0.08346
same,fumarate,[1],-2.544
same,glucose-1/6-phosphate,[1],-2.012
same,glycerate,[1],-1.622
same,guanine,[1],-1.809
same,guanosine,[1],-1.332
same,hypoxanthine,[1],0.4621
same,indole,[1],0.006213
same,inosine,[1],-2.706
same,2_3-Diphosphoglyceric acid,[1],-2.758
same,4-phosphopantothenate,[1],-2.584
same,6-phospho-D-gluconate,[1],-2.402
same,FMN,[1],-1.9
same,IMP,[1],-1.4619
same,Pyrophosphate,[1],-2.687
same,Sedoheptoluse bisphosphate,[1],-3.03
same,cyclic-AMP,[1],-3.2218
same,glutathione disulfide,[1],-1.807
same,lactate,[1],-6.313
same,myo-inositol,[1],-0.0001746
same,nicotinate,[1],-0.2855
same,ornithine,[1],0.1501
same,phosphoenolpyruvate,[1],-1.494
same,pyruvate,[1],-2.492
same,ribose-phosphate,[1],-0.0001746
same,sarcosine/alanine,[1],-2.81
same,sn-glycerol-3-phosphate,[1],-1.932
same,succinate/methylmalonic acid,[1],-1.8645
same,uridine,[1],-1.942
same,xanthosine,[1],-0.05367
same,EC50,P. falciparum,520 nM
